Measured values as given in US7482008B1, “Human T cell reactive feline protein (TRFP) isolated from house dust and uses therefor” (Merck Patent GmbH, priority 1989, dated 2009).

Assays:
Format in all cases: cell-based, human
[1] = tested on: T cells from cat allergic patients; assay: T cell proliferation of TRFP-primed T cells from cat allergic patients (tritiated thymidine), Example 5 Part A; settings: for secondary T cell response of patient 131: FIG. 8
Experimental: Peripheral blood mononuclear cells (PBMC) were purified from 60 ml of heparinized blood from cat allergic patients. PBMC were subsequently treated as described below, although in individual cases, the length of time of cultivation with IL-2 and/or IL-4 and the specific peptides used for stimulation varied.
10 ml of PBMC from patient 131 at 10^6 /ml were cultured at 37° C. for 7 days in the presence of 5 μg purified TRFP/ml RPMI-1640 supplemented with 5% pooled human AB serum. Viable cells were purified by Ficoll-Hypaque centrifugation and cultured for three weeks at 5 units recombinant human IL-2/ml and 5 units recombinant human IL-4/ml. The resting T cells were then restimulated (secondary) with 5 μg TRFP at 2×10^5/ml in the presence of irradiated (3500 Rads) autologous PBMC at a concentration of 5×10^5/ml for three days, purified by Ficoll-Hypaque centrifugation and grown in 5 units IL-2 and 5 units IL-4/ml for two weeks. For assay, 2×10^4 resting secondary T cells were restimulated (tertiary) in the presence of 5×10^4 irradiated (3500 Rads) autologous PBMC or 2×10^4 transformed B cells (20,000 Rads) with various concentrations of allergens or their fragments in a volume of 200 microliters in a 96-well round bottom assay plates for 3 days. Each well then received 1 μCurie tritiated (methyl) thymidine for 16 hours. The counts incorporated were collected onto glass fiber filters and processed for liquid scintillation counting.
Antigens used: T cell reactive feline protein (TRFP), Hollister-Stier cat epithelium skin test reagent (CST), IPC ragweed pollen extract (pollen), and synthetic peptides derived from TRFP protein sequence (See FIGS. 6 and 7). Positive T cell proliferation is for these experiments was considered to be greater than 2.5 times the media control (T cells and antigen presenting cells alone).
Alternatively, PBMC were treated as follows: The primary stimulated cells were cultured in IL-2/IL-4 for two weeks. The resting T cells derived from this culture were tested in a secondary assay with some, but not all, of the above allergens. […] This type of epitope analysis has allowed the definition of T cell epitopes present in TRFP.

[2] = tested on: T cells from cat-allergic patients; assay: Secondary proliferation assay of T cells primed with TRFP, peptide YXZ or peptide YZX
Experimental: The human cat allergic T cell response to peptides produced as above was examined. […] Peptide YZX was cleaved with thrombin as described in Example 25. Viable cells were then purified by Ficoll-Hypaque centrifugation and cultured for 2 additional weeks in RPMI-1640/5% AB serum containing 5 units recombinant human IL-2/ml and 5 units recombinant human IL-4/ml. The resting T cells were then tested in a secondary proliferation assay using a 96 well microtiter plate to assess T cell responses to various TRFP proteins or peptides (TRFP antigens). For assay, 2×10^4 resting T cells were cultured for 3 days at 37° C. in the presence of 2×10^4 autologous Epstein-Barr virus transformed B cells (25,000 Rads) as antigen presenting cells with various concentrations of antigen in 200 μl per well. Each well then received 1 μCi tritiated thymidine for 16 hours. The counts incorporated were collected onto glass fiber filters and processed for liquid scintillation counting. The stimulation indices for responses to each antigen were then calculated as the maximum CPM in response to antigen divided by the medium control CPM. A stimulation index of 2.5 was considered to be a positive T cell response. A summary of the results of 3 such experiments (patients 522, 519, and 386 is shown in FIG. 35a, FIG. 35b and FIG. 35c). As compared to the experiments shown in FIGS. 35a and 35b in the experiment shown in […], Fel-1.4 (chain 1, amino acid residues 6-17) was substituted for Fel-1.2 (chain 1, amino acid residues 1-17) and Fel-33.3 (chain 2, amino acid residues 26-40) was substituted for Fel-18 (chain 2, amino acid residues 23-48) in order to more closely resemble the constituent amino acids of peptides X and Z. In addition, in this experiment one peptide derived from the Y-Z junction of peptide YZX (amino acid residues 50-55 from chain 1 of TRFP and amino acid residues 14-19 from chain 2 of TRFP) and one peptide derived from the Z-X junction of peptide YZX (amino acid residues 34-39 of chain 2 of TRFP and amino acid residues 7-12 of chain 1 of TRFP) were synthesized and tested. These junction peptides were produced in order to determine whether these areas of peptide YZX produce a non-native epitope when formed in the peptide.

[3] = tested on: PBMC from cat-allergic patients; assay: IL-2, IFN-gamma and IL-4 measurements by PCR in primary 36 hour PBMC culture; settings: Patient 409 primary 36 hour culture
Experimental: Peripheral blood mononuclear cells (PBMC) were purified from cat-allergic patients as described in Example 5. Five×10^6 PBMC were cultured at 2×10^6/ml for 36 hours in the presence of medium only, 20 μg purified TRFP/ml or 50 μg peptide/ml. The cells were then washed two times with phosphate buffered saline (PBS, pH 7.2) and lysed with 2 ml […] guanidinium isothiocyanate, 0.5% Sarkosyl, 5 mM sodium citrate, 0.1 M 2-mercaptoethanol, pH 7.0. The lysate was then forced through a 26 gauge needle to shear genomic DNA, and was layered onto a 2 ml cushion of 5.7 M CsCl, 0.01 M EDTA, pH 7.5 in diethylpyrocarbonate (DEPC)-treated water. The lysate was centrifuged at 35,000 RPM in a Beckman SW41 rotor for 18 hours at 20° C. The RNA pellet was resuspended in 0.4 ml TE (10 mM Tris, 1 mM EDTA), pH 7.5, 0.1% SDS, and then extracted three times with 0.5 ml phenol/0.2 ml chloroform. The RNA was then precipitated on dry ice with 2.5 volumes ice-cold ethanol, 1/10 volume 3 M sodium acetate, pH 5.2 in DEPC-treated water, rinsed once with 70% ethanol in DEPC-treated water, and dried. The RNA pellet was resuspended in 2 μl TE., pH 7.5 in DEPC-treated water.
Total cellular RNA was converted to cDNA using the Superscript kit (BRL, Bethesda, Md.). Two μl of RNA were added to one μl oligo (dT)12-18 (500 μg/ml) and 9 μl water. The sample was heated to 70° C. for 10 minutes and ice quenched. Four μl 5× buffer were added to the sample along with 2 μl 0.1 M DTT and 1 μl dNTP mix (10 mM each, dATP, dCTP, dGTP, dTTP). One μl reverse transcriptase (200U) was added and the reaction was carried out for one hour at 42° C. The reaction was terminated by incubation of the sample at 90° C. for five minutes and stored at −80° C.
Ten-fold serial dilutions of T cell cDNA in 10 mM TRIS, pH 7.5 were amplified using the standard kit and protocol recommended by Perkin Elmer-Cetus (Redwood City, Calif.). Each sample received 26.65 μl water, 5 μl ×PCR buffer, 8 μl of dNTP mix (1.25 mM each of dATP, dCTP, dGTP and dTTP), 0.1 μl alpha 32P-dCTP (3000 Ci/mmol), 0.25 μl AmpliTaq, 5 μl cDNA and 5 μl cytokine-specific 5′ and 3′ primers (20 micromolar). The primers used for most cytokines and the beta-actin control were purchased from Clontech (Redwood City, Calif.). The human IL-4 primers were purchased from Research Genetics (Huntsville, Ala.) and had the following sequences: 5′ hIL-4 primer (SEQ. ID. NO: 58):
The PCR products were extracted once with 25 μl chloroform and 25 μl of each sample were then electrophoresed on an 8% polyacrylamide gel at 250 V. The gel was dried and exposed to pre-flashed x-ray film. Several exposures of each gel were then scanned using a Shimadzu flying spot laser densitometer. Values on the linear portion of the titrations were then compared to the medium control values to obtain a stimulation index for each sample. Primers for beta-actin were included as a control for general cDNA levels in each sample. Where the medium control values are not detectable, the lowest measurable response was set at 1.00. In other experiments, levels of cytokine cDNA can be compared directly with previously amplified cytokine specific cDNAs as standards. Thus, absolute levels of particular cytokine cDNAs can be compared from one sample to another and from one experiment to another. In this experiment, IL-2, IL-4 and IFN-gamma levels were measured. As shown, in this particular cat-allergic patient, peptides such as Fel 18 generate more IL-4 than certain other TRFP-derived peptides (Fel 14 and Fel 17). This analysis will be expanded to studies of other cytokines involved in the generation of allergic responses, such as IL-5, IL-8, IL-9, TGF-beta. Samples of cDNA from each treatment can also be saved for later analysis once additional cytokines are identified and sequenced. Peptides generating a spectrum of cytokines favorable for the generation of allergic responses can be avoided for therapeutic use in the treatment of cat allergy. […]

[4] = Table 3, chain #2 TRFP peptides
[5] = Table 2, chain #1 TRFP peptides, average SI of responding patients multiplied by percent of patients with positive response (SI >2.5)
[6] = Table 2, chain #1 TRFP peptides, average cpm with antigen divided by cpm of T cells and APC alone, responding patients
[7] = patient 386, T cells primed with YZX
[8] = patient 522, T cells primed with YXZ
[9] = patient 522, T cells primed with native TRFP, SI 2.5 positive

Question: With “Fel 33-2: TRFP chain 2 amino acids 26-38 (CPIFYDVFFAVAN)” as the substance, how does the PI [1, 4] read?
Answer: 210

Question: What about the SI [1, 4] of the same substance?
Answer: 4.2

Question: With “Fel 4-2: TRFP chain 1 amino acids 37-49 (NARILKNCVDAKM; UniProt P30438 59-71, looked up, fragment)” as the substance, how does the PI [1, 5] read?
Answer: 378

Question: What about the SI [1, 6] of the same substance?
Answer: 6.2

Question: Which results are given for “Fel 14-3: TRFP chain 1 amino acids 25-36 (VAQYKALPVVLE; UniProt P30438 47-58, looked up, fragment)”?
Answer: PI [1, 5]: 621; SI [1, 6]: 6.9

Question: “Fel 16: TRFP chain 2 amino acids 1-22 (DTMRGALLVLALLVTQALGVKM)” was tested. Which PI [1, 4] did it give?
Answer: 283

Question: And the SI [1, 4]?
Answer: 5.9

Question: “Fel 8: TRFP chain 1 amino acids 1-30 (EICPAVKRDVDLFLTGTPDEYVEQVAQYKA; UniProt P30438 23-52, looked up, fragment)” was tested. Which “secondary T cell response of patient 131” value [1] did it give?
Answer: respond

Question: With “DVDLFLTGTPDEYVEQV [Fel 2, TRFP chain 1 amino acids 9-25]” as the substance, how does the PI [1, 5] read?
Answer: 416

Question: What about the SI [1, 6] of the same substance?
Answer: 7.3

Question: What about the T cell response [2, 7] of the same substance?
Answer: respond at a similar level or better

Question: And the T cell response [2, 8]?
Answer: respond at a similar level or better

Question: What does the source list for “Fel 1-4: TRFP chain 1 amino acids 6-17 (VKRDVDLFLTGT; UniProt P30438 28-39, looked up, fragment)”?
Answer: PI [1, 5]: 816; SI [1, 6]: 9.6

Question: “Fel 17: TRFP chain 2 amino acids 12-33 (LLVTQALGVKMAETCPIFYDVF)” was tested. Which T cell response [2, 7] did it give?
Answer: respond at a similar level or better

Question: And the T cell response ([2]; patient 519, cells primed with peptide YXZ)?
Answer: positive responses

Question: What about the T cell response [2, 8] of the same substance?
Answer: respond at a similar level or better

Question: What about the T cell response [2, 9] of the same substance?
Answer: positively respond

Question: How did the PI [1, 4] turn out when “Fel 32-3: TRFP chain 2 amino acids 16-24 (QALGVKMAE)” was run?
Answer: 270

Question: And the SI [1, 4]?
Answer: 3.7

Question: Which results are given for “Fel 1-5: TRFP chain 1 amino acids 8-17 (RDVDLFLTGT; UniProt P30438 30-39, looked up, fragment)”?
Answer: PI [1, 5]: 286; SI [1, 6]: 5.2

Question: How did the PI [1, 4] turn out when “LLLDLSLTKVNATEPERTAMKKIQDC [Fel 18, TRFP chain 2 amino acids 23-48]” was run?
Answer: 466

Question: And the SI [1, 4]?
Answer: 6.3

Question: What about the “RATIO IFN/IL-4” value [3] of the same substance?
Answer: 0.5

Question: What about the “RATIO IL-2/IL-4” value [3] of the same substance?
Answer: 0.4

Question: And the “STIMULATION INDEX IFN-γ” value ([3]; PCR, vs medium control)?
Answer: 5.6

Question: What about the “STIMULATION INDEX IL-2” value ([3]; PCR, vs medium control) of the same substance?
Answer: 4.6

Question: What about the “STIMULATION INDEX IL-4” value ([3]; PCR, vs medium control) of the same substance?
Answer: 12.0

Question: And the T cell response [2, 8]?
Answer: respond at a similar level or better

Question: What does the source list for “Fel 33-1: TRFP chain 2 amino acids 26-36 (CPIFYDVFFAV)”?
Answer: PI [1, 4]: 340; SI [1, 4]: 5.4

Question: For “EITPAVKRDVDLFLTGT [Fel 1, TRFP chain 1 amino acids 1-17, amino acid 3 changed to T]”, which “secondary T cell response of patient 131” value [1] is on record?
Answer: respond

Question: And the PI [1, 5]?
Answer: 392

Question: What about the SI [1, 6] of the same substance?
Answer: 5.6

Question: For “Fel 4-1: TRFP chain 1 amino acids 37-52 (NARILKNCVDAKMTEE; UniProt P30438 59-74, looked up, fragment)”, which PI [1, 5] is on record?
Answer: 822

Question: What about the SI [1, 6] of the same substance?
Answer: 9.9

Question: What does the source list for “Fel 33-3: TRFP chain 2 amino acids 26-40 (CPIFYDVFFAVANGN)”?
Answer: PI [1, 4]: 235; SI [1, 4]: 5.0

Question: “Fel 14-2: TRFP chain 1 amino acids 29-42 (KALPVVLENARILK; UniProt P30438 51-64, looked up, fragment)” was tested. Which SI [1, 6] did it give?
Answer: 4.6

Question: What about the T cell response [2, 7] of the same substance?
Answer: respond at a similar level or better

Question: And the T cell response ([2]; patient 386, T cells primed with native TRFP)?
Answer: positively respond

Question: And the T cell response [2, 8]?
Answer: respond at a similar level or better

Question: And the T cell response [2, 9]?
Answer: positively respond
